In patent US9115137B2, “2,3,4,5-tetrahydro-1H-pyrido[4,3-B]indole compounds and methods of use thereof” (priority 2008, dated 2015):

Tests used:
[1] = target: T1, human recombinant adrenergic α2A receptor (Homo sapiens, UniProt P08913); assay: Adrenergic α2A radioligand binding ([3H]MK-912); settings: compound at 1 μM; insect Sf9 cells; read-out: Adrenergic (1 μM) α2A, percent inhibition of specific binding
T1 construct: expressed in transfected cells; host or cells: insect Sf9 cells
T1 sequence (P08913 1-465): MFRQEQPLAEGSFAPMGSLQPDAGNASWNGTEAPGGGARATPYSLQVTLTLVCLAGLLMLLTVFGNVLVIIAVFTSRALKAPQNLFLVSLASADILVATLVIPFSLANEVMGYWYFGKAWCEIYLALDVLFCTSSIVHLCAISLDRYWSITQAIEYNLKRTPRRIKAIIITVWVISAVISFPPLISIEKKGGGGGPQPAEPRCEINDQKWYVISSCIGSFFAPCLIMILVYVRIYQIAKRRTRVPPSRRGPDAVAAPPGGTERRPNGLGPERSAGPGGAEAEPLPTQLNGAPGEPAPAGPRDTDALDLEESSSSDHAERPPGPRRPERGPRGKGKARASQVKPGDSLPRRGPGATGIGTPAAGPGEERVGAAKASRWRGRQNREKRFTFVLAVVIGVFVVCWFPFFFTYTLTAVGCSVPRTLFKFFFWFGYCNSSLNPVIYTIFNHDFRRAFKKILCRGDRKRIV
Procedure: To evaluate in radioligand binding assays the activity of compounds of the invention, human recombinant adrenergic α2A receptor expressed in insect Sf9 cells (Uhlen S et al. J Pharmacol Exp Ther. 271:1558, 1994) in a modified Tris-HCl buffer (50 mM Tris-HCl, pH 7.4, 12.5 mM MgCl2, 2 mM EDTA) was used. Compounds of invention were incubated with 1 nM [^3H]MK-912 for 60 minutes at 25° C. MK912 is (2S-trans)-1,3,4,5′,6,6′,7,12b-octahydro-1′,3′-dimethyl-spiro[2H-benzofuro[2,3-a]quinolizine-2,4′(1′H)-pyrimidin]-2′(3′H)-one hydrochloride Non-specific binding was estimated in the presence of 10 μM WB-4101 (2-(2,6-Dimethoxyphenoxyethyl)aminomethyl-1,4-benzodioxane hydrochloride). Receptor proteins were filtered and washed, the filters were then counted to determine [^3H]MK-912 specifically bound. Compounds were screened at 1 μM or lower, using 1% DMSO as vehicle. Biochemical assay results are presented as the percent inhibition of specific binding in Table 6.

[2] = target: T2, human recombinant adrenergic α2B receptor (Homo sapiens, UniProt P18089); assay: Adrenergic α2B radioligand binding ([3H]Rauwolscine); settings: compound at 1 μM; CHO-K1 cells; read-out: Adrenergic (1 μM) α2B, percent inhibition of specific binding
T2 construct: expressed in transfected cells; host or cells: CHO-K1 cells
T2 sequence (P18089 1-450): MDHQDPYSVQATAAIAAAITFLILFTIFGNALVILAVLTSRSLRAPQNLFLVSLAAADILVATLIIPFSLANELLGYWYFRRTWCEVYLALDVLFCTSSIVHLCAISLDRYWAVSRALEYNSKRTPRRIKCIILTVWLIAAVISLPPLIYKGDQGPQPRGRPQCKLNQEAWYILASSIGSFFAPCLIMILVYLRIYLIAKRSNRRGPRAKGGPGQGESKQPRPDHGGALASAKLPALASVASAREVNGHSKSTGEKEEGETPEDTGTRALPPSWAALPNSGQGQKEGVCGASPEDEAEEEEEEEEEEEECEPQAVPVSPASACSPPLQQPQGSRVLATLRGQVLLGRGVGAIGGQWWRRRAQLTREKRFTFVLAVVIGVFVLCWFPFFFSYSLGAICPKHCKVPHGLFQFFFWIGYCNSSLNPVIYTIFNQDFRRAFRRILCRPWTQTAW
Procedure: To evaluate in radioligand binding assays the activity of compounds of the invention, human recombinant adrenergic α2B receptor expressed in Chinese hamster ovary (CHO-K1) cells (Uhlen S et al. Eur. J. Pharmacol. 343(1):93, 1998) in a modified Tris-HCl buffer (50 mM Tris-HCl, pH 7.4, 12.5 mM MgCl2, 1 mM EDTA, 0.2% BSA) was used. Compounds of the invention were incubated with 2.5 nM [3H]Rauwolscine for 60 minutes at 25° C. Non-specific binding was estimated in the presence of 10 μM Prozosin. Receptor proteins were filtered and washed, the filters were then counted to determine [^3H]Rauwolscine specifically bound. Compounds were screened at 1 μM or lower, using 1% DMSO as vehicle. Biochemical assay results are presented as the percent inhibition of specific binding in Table 6.

[3] = target: T3, human recombinant serotonin (5-Hydroxytryptamine) 5-HT2C receptor (Homo sapiens, UniProt P28335); assay: Serotonin 5-HT2C radioligand binding ([3H]Mesulergine); settings: compound at 1 μM; CHO-K1 cells; read-out: Serotonin (1 μM) 5-HT2C, percent inhibition of specific binding
T3 construct: expressed in transfected cells; host or cells: CHO-K1 cells
T3 sequence (P28335 33-458): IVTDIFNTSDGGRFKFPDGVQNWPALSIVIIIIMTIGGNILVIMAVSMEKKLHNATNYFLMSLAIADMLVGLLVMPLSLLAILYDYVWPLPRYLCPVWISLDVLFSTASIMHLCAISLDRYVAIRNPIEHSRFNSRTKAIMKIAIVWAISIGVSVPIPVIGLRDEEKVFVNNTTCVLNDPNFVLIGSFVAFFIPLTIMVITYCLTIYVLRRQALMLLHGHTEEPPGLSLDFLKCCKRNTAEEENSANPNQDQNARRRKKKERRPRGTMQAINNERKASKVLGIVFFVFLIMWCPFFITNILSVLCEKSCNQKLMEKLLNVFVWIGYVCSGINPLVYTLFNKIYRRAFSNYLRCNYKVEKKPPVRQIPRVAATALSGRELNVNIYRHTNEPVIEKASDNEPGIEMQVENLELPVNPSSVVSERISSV
Procedure: To evaluate in radioligand binding assays the activity of compounds of the invention, human recombinant serotonin (5-Hydroxytryptamine) 5-HT2C receptor expressed in Chinese hamster ovary (CHO-K1) cells (Wolf, W. A. and Schutz, J. S., J. Neurochem. 69:1449, 1997) in a modified Tris-HCl buffer (50 mM Tris-HCl, pH 7.4, 0.1% Ascorbic Acid, 10 μM Pargyline) was used. Compounds of the invention were incubated with 1 nM [^3H]Mesulergine for 60 minutes at 25° C. Non-specific binding was estimated in the presence of 1 μM Mianserin. Receptor proteins were filtered and washed, the filters were then counted to determine [^3H]Mesulergine specifically bound. Compounds were screened at 1 μM or lower, using 1% DMSO as vehicle. Biochemical assay results are presented as the percent inhibition of specific binding in Table 7.

SMILES	inhibition at 1 µM [1] [%]	inhibition at 1 µM [2] [%]	inhibition at 1 µM [3] [%]
CCOC(=O)CCCn1c2c(c3cc(C)ccc31)CN(C)CC2 [Compound 5, ethyl 4-(1,2,3,4-tetrahydro-2,8-dimethylpyrido[4,3-b]indol-5-yl)butanoate]	74	98	96
CCNC(=O)CCCn1c2c(c3cc(C)ccc31)CN(C)CC2 [Compound 6, N-ethyl-4-(1,2,3,4-tetrahydro-2,8-dimethylpyrido[4,3-b]indol-5-yl)butanamide]	59	36	45
Cc1ccc2c(c1)c1c(n2CCNC(=O)OCC(Cl)(Cl)Cl)CCN(C)C1 [Compound 8, 2,2,2-trichloroethyl 2-(1,2,3,4-tetrahydro-2,8-dimethylpyrido[4,3-b]indol-5-yl)ethylcarbamate]	90	102	99
Cc1ccc2c(c1)c1c(n2CCNC(=O)C2CCCNC2)CCN(C)C1 (stereo not drawn) [Compound 9, N-(2-(1,2,3,4-tetrahydro-2,8-dimethylpyrido[4,3-b]indol-5-yl)ethyl)piperidine-3-carboxamide]	20	25	29
CCOC(=O)Cn1c2c(c3cc(Cl)ccc31)CN(C)CC2 [Compound 10, ethyl 2-(8-chloro-1,2,3,4-tetrahydro-2-methylpyrido[4,3-b]indol-5-yl)acetate]	40	71	92
CC(C)OC(=O)Cn1c2c(c3cc(Cl)ccc31)CN(C)CC2 [Compound 11, isopropyl 2-(8-chloro-1,2,3,4-tetrahydro-2-methylpyrido[4,3-b]indol-5-yl)acetate]	25	69	71
CN1CCc2c(c3cc(Cl)ccc3n2CC(=O)OC(C)(C)C)C1 [Compound 12, tert-butyl 2-(8-chloro-1,2,3,4-tetrahydro-2-methylpyrido[4,3-b]indol-5-yl)acetate]	12	45	83
CN1CCc2c(c3cc(Cl)ccc3n2CC(=O)OCc2ccccc2)C1 [Compound 13, benzyl 2-(8-chloro-1,2,3,4-tetrahydro-2-methylpyrido[4,3-b]indol-5-yl)acetate]	73	97	91
CN1CCc2c(c3cc(Cl)ccc3n2CC(=O)OCC2CCCCC2)C1 [Compound 14, cyclohexylmethyl 2-(8-chloro-1,2,3,4-tetrahydro-2-methylpyrido[4,3-b]indol-5-yl)acetate]	79	103	94
CN1CCc2c(c3cc(Cl)ccc3n2CC(=O)OC2CCCC2)C1 [Compound 15]	67	95	94
CC(C)OC(=O)CCn1c2c(c3cc(Cl)ccc31)CN(C)CC2 [Compound 17, isopropyl 3-(8-chloro-1,2,3,4-tetrahydro-2-methylpyrido[4,3-b]indol-5-yl)propanoate]	90	106	91
CN1CCc2c(c3cc(Cl)ccc3n2CCC(=O)OCc2ccccc2)C1 [Compound 19, benzyl 3-(8-chloro-1,2,3,4-tetrahydro-2-methylpyrido[4,3-b]indol-5-yl)propanoate]	86	106	96
CN1CCc2c(c3cc(Cl)ccc3n2CCC(=O)OCC2CCCCC2)C1 [Compound 20, cyclohexylmethyl 3-(8-chloro-1,2,3,4-tetrahydro-2-methylpyrido[4,3-b]indol-5-yl)propanoate]	95	103	88
CN1CCc2c(c3cc(Cl)ccc3n2CCC(=O)OC2CCCC2)C1 [Compound 21, cyclopentyl 3-(8-chloro-1,2,3,4-tetrahydro-2-methylpyrido[4,3-b]indol-5-yl)propanoate]	95	103	100
CCNC(=O)Cn1c2c(c3cc(C)ccc31)CN(C)CC2 [Compound 22, N-ethyl-2-(1,2,3,4-tetrahydro-2,8-dimethylpyrido[4,3-b]indol-5-yl)acetamide]	40	58	81
Cc1ccc2c(c1)c1c(n2CC(=O)NC(C)C)CCN(C)C1 [Compound 23, 2-(1,2,3,4-tetrahydro-2,8-dimethylpyrido[4,3-b]indol-5-yl)-N-isopropylacetamide]	12	18	37
Cc1ccc2c(c1)c1c(n2CC(=O)NC(C)(C)C)CCN(C)C1 [Compound 24, N-tert-butyl-2-(1,2,3,4-tetrahydro-2,8-dimethylpyrido[4,3-b]indol-5-yl)acetamide]	10	13	21
Cc1ccc2c(c1)c1c(n2CC(=O)NCc2ccccc2)CCN(C)C1 [Compound 25, N-benzyl-2-(1,2,3,4-tetrahydro-2,8-dimethylpyrido[4,3-b]indol-5-yl)acetamide]	2	38	61
Cc1ccc2c(c1)c1c(n2CC(=O)NCC2CCCCC2)CCN(C)C1 [Compound 26, N-(cyclohexylmethyl)-2-(1,2,3,4-tetrahydro-2,8-dimethylpyrido[4,3-b]indol-5-yl)acetamide]	22	45	54
CN1CCc2c(c3cc(Cl)ccc3n2CC(=O)NC2CCCC2)C1 [Compound 27, 2-(8-chloro-1,2,3,4-tetrahydro-2-methylpyrido[4,3-b]indol-5-yl)-N-cyclopentylacetamide]	12	35	28
